In ChEMBL document CHEMBL5674860, “Optimized Dual-Glo Assay to identify co-culture-induced drug vulnerabilities in 3D CRC models” (2024):

Columns and labels:
Type in all cases: functional, Homo sapiens
Parameters in all cases: dose or concentration left out as unconfirmed
Colon cancer organoid [1] = assay: Optimized Dual-Glo assay to identify co-culture induced drug vulnerabilities using donated chemical probes and chemogenomics kinase set in O06 CRC organoid and F06 CAF mono and co-culture. […] Cell viability is reported both mono and co-culture models.
Colon cancer organoid [2] = assay: Optimized Dual-Glo assay to identify co-culture induced drug vulnerabilities using donated chemical probes and chemogenomics kinase set in O14 CRC organoid and F14 CAF mono and co-culture. […] Cell viability is reported both mono and co-culture models.
Colon cancer organoid [3] = assay: Optimized Dual-Glo assay to identify co-culture induced drug vulnerabilities using donated chemical probes and chemogenomics kinase set in O20 CRC organoid and F20 CAF mono and co-culture. […] Cell viability is reported both mono and co-culture models.
[4] = Culture type Co-Culture, Transduced with Lucferase2-P2A-EGFP lentivirus
[5] = Culture type Co-Culture, Transduced with Renilla-dsRed lentivirus
[6] = Culture type Mono-Culture, Transduced with Lucferase2-P2A-EGFP lentivirus
[7] = Culture type Mono-Culture, Transduced with Renilla-dsRed lentivirus

SMILES	Cell Viability (Colon cancer organoid [1]; [4]) [%]	Cell Viability (Colon cancer organoid [1]; [5]) [%]	Cell Viability (Colon cancer organoid [1]; [6]) [%]	Cell Viability (Colon cancer organoid [1]; [7]) [%]	Cell Viability (Colon cancer organoid [2]; [4]) [%]	Cell Viability (Colon cancer organoid [2]; [5]) [%]	Cell Viability (Colon cancer organoid [2]; [6]) [%]	Cell Viability (Colon cancer organoid [2]; [7]) [%]	Cell Viability (Colon cancer organoid [3]; [4]) [%]	Cell Viability (Colon cancer organoid [3]; [5]) [%]	Cell Viability (Colon cancer organoid [3]; [6]) [%]	Cell Viability (Colon cancer organoid [3]; [7]) [%]
CNC(=O)c1cc(C(=O)N[C@H]2[C@@H]3COC[C@@H]32)cc2c1O[C@H](CF)[C@H]2c1ccccc1 [GSK973]	110.942	170.924	57.9314	146.399	93.0111	167.902	105.165	155.71	97.8368	135.509	77.6772	131.324
CCS(=O)(=O)Nc1ccc(Oc2ccc(F)cc2F)c(-c2cn(C)c(=O)c3[nH]ccc23)c1 [MIVEBRESIB]	13.1828	272.686	12.7607	153.585	11.3223	338.596	8.201	180.439	5.728	64.2458	7.404	12.1973
Cc1cc(=O)n(C)c2cc(N3C(=O)CC[C@H](NS(=O)(=O)CC(C)C)[C@H]3c3ccc(Cl)cc3)ccc12	117.914	167.751	110.238	116.926	75.0892	148.008	105.721	116.483	107.11	166.434	116.867	106.138
COc1cccc2c1c(O)c(C(=O)N(C)c1ccc(C(F)(F)F)cc1)c(=O)n2C [TASQUINIMOD]	78.5663	130.265	63.1287	110.699	94.583	144.919	82.4794	97.8059	63.9822	99.9703	87.5673	108.719
CCCCNc1ncc(-c2ccc(CN3CCOCC3)cn2)c(N[C@H]2CC[C@H](O)CC2)n1	22.8495	123.664	12.6023	77.4775	23.305	148.151	59.2421	71.142	8.774	223.767	10.8517	82.0591
C=CC(=O)Nc1cccc(C(=O)Nc2ccc(Nc3cc(-c4[nH]c(SC)nc4C)ccn3)cc2)c1	87.3077	89.5907	92.9694	99.3546	92.8618	104.149	127.049	88.1867	175.75	71.728	133.783	92.5554
O=C(O)c1ccc(-c2c[nH]c3ncc(-c4ccccc4)cc23)cc1C1CCCC1 [GSK-650394]	150.298	125.274	142.061	114.363	84.2987	94.4983	153.467	103.115	93.9419	129.576	65.3151	121.845
COc1cc(Nc2ccnc3ccc(Br)cc23)cc(OC)c1OC	12.1878	144.697	4.043	101.861	114.11	94.8334	91.9496	94.0266	3.207	235.19	3.534	97.9085
Cc1nc(NC(=O)N2CCC[C@H]2C(N)=O)sc1-c1ccnc(C(C)(C)C(F)(F)F)c1 [ALPELISIB]	74.6278	68.5217	72.4718	69.5837	44.356	105.185	47.7974	68.4414	70.7946	99.8659	21.7931	78.1697
CN(C)[C@@H]1CCN(c2cc(-c3ccccc3)nc3ccnn23)C1 [(R)-ZINC-3573]	122.992	121.371	72.8757	94.4779	103.063	100.336	115.069	113.962	97.0418	99.7993	84.3174	93.0838
O=C(NCc1ccccc1)c1ccc(S(=O)(=O)NCc2ccccc2)cc1	120.089	107.944	199.391	148.571	77.1762	97.8485	125.216	99.6349	89.1581	96.8328	97.877	137.118
O=C1CCc2cc(Nc3cc(OC4CCOCC4)c([N+](=O)[O-])cc3Cl)ccc2N1	112.978	126.115	116.283	106.249	95.0687	106.674	142.925	117.869	150.133	114.972	136.194	114.49
CCOc1cc2ncc(C#N)c(Nc3ccc(OCc4cccc(F)c4)c(Cl)c3)c2cc1NC(=O)/C=C/CN(C)C [HKI-357]	16.8896	39.6819	6.232	45.0211	25.3344	46.9424	1.402	33.5455	50.2885	47.1207	7.299	36.419
CC1(C)C(N)=Nc2cc(OCCCN3Cc4ccc(OCCc5cn(CC(=O)N6CCC(CCN7CCCC7)CC6)nn5)cc4C3)c(OCC3CC3)cc21	85.8179	109.54	61.6099	146.021	83.4014	129.005	107.567	119.85	94.7334	161.052	109.897	111.947
COc1cc(C(=O)O)ncc1C#Cc1ccccc1NS(=O)(=O)c1cccc2c(N(C)C)ccnc12 [MSC-0516]	46.2412	64.6541	39.7973	95.1501	94.2911	93.5429	114.942	88.0348	89.6649	109.372	112.972	85.9962
Cn1c(C2(NC(=O)c3ccc(NCC4CCCCC4)nc3)CCC2)nc2ccc(/C=C/C(=O)O)cc21 [BI 7656]	130.07	105.71	133.812	120.577	115.178	112.206	113.679	103.836	93.1126	134.723	113.339	113.787
C[C@H](NC(=O)Nc1cc2[nH]ncc2c(CO)n1)c1ccccn1 [ERKi-NC]	88.473	87.7291	101.937	116.172	88.9935	102.074	55.928	92.432	108.541	124.126	136.018	90.7734
CN(C)C(=O)c1ccc(-c2cc(C(=O)N[C@@H]3CCc4ccccc43)no2)cc1O	113.879	93.2478	92.6679	134.315	73.2649	147.75	80.1245	134.73	98.4389	104.475	121.813	120.44
